Results reported in patent US6365621B1, “Remedies or preventives for intractable epilepsy” (Pharmaceutical Co., Ltd., priority 1998, dated 2002).

Tests used:
[1] = test system: kainate-induced amygdala seizures; assay: Local cerebral glucose metabolism during kainate-induced amygdala seizures ([14C]deoxyglucose autoradiography); format: in vivo, rat; design: key to Effect on local cerebral glucose metabolism rate: → : no change; →↓ : decreased in a low degree; ↓ : decreased in a moderate degree; ↓↓ : decreased in a high degree; settings: for Local glucose metabolism rate: average ± standard error
Excerpt: [Method for measuring cerebral glucose metabolism] Cannulas for injection of kainic acid were inserted in an assigned position of the left side of the amygdala of 18 Wistar male rats and fixed through the same procedure as described in Example I-1. Seven days after operation, polyethylene catheters were set and fixed to the femoral artery and vein of one side under halothane anesthesion, and the lower half of the body of each rat were put in plaster so as to prevent removal of the catheter. Upon awakening from narcotism, the same kainic acid solution as described in I-1 (1 μL) was injected through the cannula so as to induce seizures. After elapse of 90 minutes from injection of kainic acid, when limbic system seizures were in status epilepticus, 50, 100, or 200 mg/kg of nefiracetam was intravenously injected, whereas saline was injected into rats of the control group. After 60 minutes, 25 μCi of [^14C] deoxyglucose was intravenously injected. After the tracer was injected, blood was continuously collected from the artery for 45 minutes. When collection was finished, heads were cut off. Brains were extirpated immediately and instantly frozen in by hexane (−25° C.) cooled by dry ice. The frozen brain was sliced in a cryostat (−20° C.) so as to produce coronary, serial-frozen sections having a thickness of 20 μm. Subsequently, the sections were dried and put on high-speed X-ray film with a [^14C] standard, followed by seven-day-exposure in a cassette to thereby obtain an autoradiogram. The blood samples collected from the artery were centrifuged so as to collect plasma, the [^14C] radioactivity was measured by use of a liquid scintillation counter, and glucose concentration in plasma was measured.
The optical density of the intracerebral structure of each section was measured from the autoradiogram by use of a densitometer, and a glucose utilization rate of each intracerabral structure was calculated by use of the formula of Sokoloff (Sokoloff, L., Reivich, M., Kennedy, C., et al., J. Neurochemistry, 28: 897-916, 1977) based on [^14C] radioactivity and glucose concentration in plasma. The obtained data were compared quantitatively and statistically with those of the control group, through the Mann-Whitney U-test.

male mouse = settings: peroral; cited from earlier work
[2] = Occipital lobe cortex, non-focal side, 100 mg/kg i.v.
[3] = Parietal lobe cortex, focal side, 100 mg/kg i.v.
[4] = Parietal lobe cortex, non-focal side, 100 mg/kg i.v.
[5] = Sensorimotor area cortex, focal side, 100 mg/kg i.v.
[6] = Sensorimotor area cortex, non-focal side, 100 mg/kg i.v.
[7] = Septal area, focal side, 100 mg/kg i.v.
[8] = Septal area, non-focal side, 100 mg/kg i.v.
[9] = Substantia nigra, focal side, 100 mg/kg i.v.
[10] = Substantia nigra, non-focal side, 100 mg/kg i.v.
[11] = Temporal lobe cortex, focal side, 100 mg/kg i.v.
[12] = Temporal lobe cortex, non-focal side, 100 mg/kg i.v.
[13] = Thalamus, focal side, 100 mg/kg i.v.
[14] = Thalamus, non-focal side, 100 mg/kg i.v.
[15] = hippocampus, focal side, 100 mg/kg i.v.
[16] = hippocampus, non-focal side, 100 mg/kg i.v.

**Q.** With `Cc1cccc(C)c1NC(=O)CN1CCCC1=O` [nefiracetam, N-(2,6-dimethylphenyl)-2-(2-oxo-1-pyrrolidinyl)acetamide] as the compound, how does the “Effect on local cerebral glucose metabolism rate” value (from here on “Effect”) ([1]; Occipital lobe cortex, non-focal side, 50 mg/kg i.v.) read?
**A.** →

**Q.** What about the “Effect” value [1, 2] of the same compound?
**A.** →↓

**Q.** And the Local glucose metabolism rate [1, 2]?
**A.** 78.6 ± 5.8 µmol/100 g/min

**Q.** What about the “Effect” value ([1]; Occipital lobe cortex, non-focal side, 200 mg/kg i.v.) of the same compound?
**A.** ↓

**Q.** And the “Effect” value ([1]; Parietal lobe cortex, focal side, 50 mg/kg i.v.)?
**A.** →

**Q.** What about the “Effect” value [1, 3] of the same compound?
**A.** →↓

**Q.** And the Local glucose metabolism rate [1, 3]?
**A.** 109 ± 10.6 µmol/100 g/min

**Q.** What about the “Effect” value ([1]; Parietal lobe cortex, focal side, 200 mg/kg i.v.) of the same compound?
**A.** ↓

**Q.** And the “Effect” value ([1]; Parietal lobe cortex, non-focal side, 50 mg/kg i.v.)?
**A.** →

**Q.** And the “Effect” value [1, 4]?
**A.** →↓

**Q.** And the Local glucose metabolism rate [1, 4]?
**A.** 72.1 ± 4.9 µmol/100 g/min

**Q.** What about the “Effect” value ([1]; Parietal lobe cortex, non-focal side, 200 mg/kg i.v.) of the same compound?
**A.** ↓

**Q.** What about the “Effect” value ([1]; Sensorimotor area cortex, focal side, 50 mg/kg i.v.) of the same compound?
**A.** →

**Q.** What about the “Effect” value [1, 5] of the same compound?
**A.** →

**Q.** What about the Local glucose metabolism rate [1, 5] of the same compound?
**A.** 139 ± 9 µmol/100 g/min

**Q.** And the “Effect” value ([1]; Sensorimotor area cortex, focal side, 200 mg/kg i.v.)?
**A.** ↓

**Q.** And the “Effect” value ([1]; Sensorimotor area cortex, non-focal side, 50 mg/kg i.v.)?
**A.** →

**Q.** And the “Effect” value [1, 6]?
**A.** ↓

**Q.** What about the Local glucose metabolism rate [1, 6] of the same compound?
**A.** 73.4 ± 4.7 µmol/100 g/min

**Q.** What about the “Effect” value ([1]; Sensorimotor area cortex, non-focal side, 200 mg/kg i.v.) of the same compound?
**A.** ↓

**Q.** What about the “Effect” value ([1]; Septal area, focal side, 50 mg/kg i.v.) of the same compound?
**A.** →

**Q.** What about the “Effect” value [1, 7] of the same compound?
**A.** ↓

**Q.** What about the Local glucose metabolism rate [1, 7] of the same compound?
**A.** 117 ± 22.7 µmol/100 g/min

**Q.** What about the “Effect” value ([1]; Septal area, focal side, 200 mg/kg i.v.) of the same compound?
**A.** ↓↓

**Q.** What about the “Effect” value ([1]; Septal area, non-focal side, 50 mg/kg i.v.) of the same compound?
**A.** →

**Q.** What about the “Effect” value [1, 8] of the same compound?
**A.** ↓↓

**Q.** And the Local glucose metabolism rate [1, 8]?
**A.** 56.9 ± 3.3 µmol/100 g/min

**Q.** What about the “Effect” value ([1]; Septal area, non-focal side, 200 mg/kg i.v.) of the same compound?
**A.** ↓↓

**Q.** What about the “Effect” value ([1]; Substantia nigra, focal side, 50 mg/kg i.v.) of the same compound?
**A.** →

**Q.** What about the “Effect” value [1, 9] of the same compound?
**A.** ↓

**Q.** And the Local glucose metabolism rate [1, 9]?
**A.** 77.6 ± 6.8 µmol/100 g/min

**Q.** What about the “Effect” value ([1]; Substantia nigra, focal side, 200 mg/kg i.v.) of the same compound?
**A.** ↓

**Q.** What about the “Effect” value ([1]; Substantia nigra, non-focal side, 50 mg/kg i.v.) of the same compound?
**A.** →

**Q.** And the “Effect” value [1, 10]?
**A.** ↓

**Q.** And the Local glucose metabolism rate [1, 10]?
**A.** 45.9 ± 2.7 µmol/100 g/min

**Q.** What about the “Effect” value ([1]; Substantia nigra, non-focal side, 200 mg/kg i.v.) of the same compound?
**A.** ↓

**Q.** What about the “Effect” value ([1]; Temporal lobe cortex, focal side, 50 mg/kg i.v.) of the same compound?
**A.** →

**Q.** What about the “Effect” value [1, 11] of the same compound?
**A.** →↓

**Q.** What about the Local glucose metabolism rate [1, 11] of the same compound?
**A.** 103 ± 6.2 µmol/100 g/min

**Q.** What about the “Effect” value ([1]; Temporal lobe cortex, focal side, 200 mg/kg i.v.) of the same compound?
**A.** ↓

**Q.** And the “Effect” value ([1]; Temporal lobe cortex, non-focal side, 50 mg/kg i.v.)?
**A.** →

**Q.** And the “Effect” value [1, 12]?
**A.** ↓

**Q.** What about the Local glucose metabolism rate [1, 12] of the same compound?
**A.** 67.8 ± 3.5 µmol/100 g/min

**Q.** And the “Effect” value ([1]; Temporal lobe cortex, non-focal side, 200 mg/kg i.v.)?
**A.** ↓

**Q.** And the “Effect” value ([1]; Thalamus, focal side, 50 mg/kg i.v.)?
**A.** →

**Q.** What about the “Effect” value [1, 13] of the same compound?
**A.** ↓

**Q.** What about the Local glucose metabolism rate [1, 13] of the same compound?
**A.** 90.5 ± 3.8 µmol/100 g/min

**Q.** What about the “Effect” value ([1]; Thalamus, focal side, 200 mg/kg i.v.) of the same compound?
**A.** ↓↓

**Q.** And the “Effect” value ([1]; Thalamus, non-focal side, 50 mg/kg i.v.)?
**A.** ↓

**Q.** And the “Effect” value [1, 14]?
**A.** ↓↓

**Q.** What about the Local glucose metabolism rate [1, 14] of the same compound?
**A.** 72.3 ± 2.8 µmol/100 g/min

**Q.** What about the “Effect” value ([1]; Thalamus, non-focal side, 200 mg/kg i.v.) of the same compound?
**A.** ↓↓

**Q.** What about the “Effect” value ([1]; hippocampus, focal side, 50 mg/kg i.v.) of the same compound?
**A.** →↓

**Q.** And the “Effect” value [1, 15]?
**A.** ↓

**Q.** And the Local glucose metabolism rate [1, 15]?
**A.** 184 ± 7.1 µmol/100 g/min

**Q.** What about the “Effect” value ([1]; hippocampus, focal side, 200 mg/kg i.v.) of the same compound?
**A.** ↓↓

**Q.** What about the “Effect” value ([1]; hippocampus, non-focal side, 50 mg/kg i.v.) of the same compound?
**A.** ↓

**Q.** And the “Effect” value [1, 16]?
**A.** ↓↓

**Q.** What about the Local glucose metabolism rate [1, 16] of the same compound?
**A.** 87.2 ± 8.9 µmol/100 g/min

**Q.** And the “Effect” value ([1]; hippocampus, non-focal side, 200 mg/kg i.v.)?
**A.** ↓↓

**Q.** And the acute toxicity (male mouse)?
**A.** 2,005 mg/kg
